Measurements reported in patent USRE38828E1, “Parevins and tachytegrins” (IntraBiotics Pharmaceuticals, Inc., priority 1995, dated 2005).
Converted amounts (≈) assume the structure as drawn. Bridge positions count the residues as written; N and C are the ends. Square brackets hold non-standard residues; d marks the D form. Ends that are not written are not given here. Peptide text beside a SMILES is read from it. Sar = CNCC(=O)O

Experiments:
E. coli = assay type: cell-based
Procedure: (§1) The radial diffusion assay in agarose gels is conducted using radiodiffusion and gel overlay techniques as described by Lehrer, R. I. et al. J Immunol Meth (1991) 137:167-173. […] In some cases, the underlay was supplemented with 100 mM NaCl. The units of activity in the radial diffusion assay were measured as described; 10 units correspond to a 1 mm diameter clear zone around the sample well. FIGS. 1-6 show the results against five test organisms in units described as above. A synthetic protegrin (PG-1) containing two cystines (sPG-1) or PG-1 in linear form were used as controls.
(§2) Several illustrative tachytegrins were synthesized as described in Example 1 and tested for activity against Staphylococcus aureus (MRSA), Pseudomonas (Psa), VREF, Candida and E. coli as described in Example 2. The results shown in Table 1 as minimal inhibitory concentration (MIC) in ug/ml were obtained with the C-terminal amidated forms except for the last two which were tested as the free acids, as indicated by *. In all peptides in Table 1, X is MeGly.

[1] = test system: Staphylococcus aureus (MRSA); assay type: cell-based
Procedure: as §1, §2

Pseudomonas (Psa) = experiment: minimal inhibitory concentration, Pseudomonas; assay type: cell-based; conditions: C-terminal amidated forms except * (free acids)
Procedure: as §1, §2

VREF = assay type: cell-based
Procedure: as §1, §2

[2] = test system: T. vaginallis strain C1 (ATCC 30001); experiment: Trichomonas vaginalis motility, lysis and growth; assay type: cell-based, Trichomonas vaginallis
Procedure: For Trichomonas vaginallis, strain C1 (ATCC 30001) is grown as described by Gorrell, T. E. et al., Carlsberg Res Comm (1984) 49:259-268. […] Soon thereafter, the organisms become permeable to trypan blue, and, over the ensuing 15-30 minutes, lyse. As expected, such organisms fail to grow when introduced into their customary growth medium (Diamond's medium).

E. coli ML-35p = experiment: radial diffusion assay in agarose gels, E. coli; assay type: cell-based
Procedure: Media for testing antimicrobial activity are designed to mimic certain specific conditions. The standard buffer medium, medium A, uses an underlay agar with the following composition: 0.3 mg/ml of trypticase soy broth powder, 1% w/v agarose and 10 mM sodium phosphate buffer (final pH 7.4). This will be designated either “medium A” or “standard in vitro conditions” herein.
A second medium contains 100 mM NaCl in order to mimic the salt levels in blood and tissue fluids. This will be designated “medium B” or “salt medium” herein.
as §1

[3] = FIG. 4, E. coli ML-35p, in the absence of salt
[4] = FIG. 4, E. coli ML-35p, in the presence of 100 mM NaCl
[5] = FIG. 1, E. coli, in the absence of salt
[6] = FIG. 1, E. coli, in the presence of 100 mM NaCl

CC(C)C[C@@H]1NC(=O)[C@@H](NC(=O)[C@H](Cc2ccccc2)NC(=O)CNC(=O)[C@@H](N)CCCNC(=N)N)CSSC[C@@H](C(=O)N[C@H](C(=O)N[C@@H](CCCNC(=N)N)C(N)=O)C(C)C)NC(=O)[C@H](Cc2ccccc2)NC(=O)[C@H](CCCNC(=N)N)NC(=O)[C@H](C(C)C)NC(=O)[C@H]([C@@H](C)O)NC(=O)[C@H](Cc2ccccc2)NC(=O)[C@H](CCCNC(=N)N)NC(=O)[C@@H]2CCCN2C(=O)[C@H](C(C)C)NC(=O)[C@H]([C@@H](C)O)NC(=O)[C@H](Cc2ccc(O)cc2)NC(=O)[C@H](CCCNC(=N)N)NC1=O [RGFCLRYTVPRFTVRFCVR] (H-RGFCLRYTVPRFTVRFCVR-NH2; disulfide 4-17; N-terminus assumed)
minimal inhibitory concentration (MIC) E. Coli (E. coli): 0.99 µg/mL (≈ 0.417 µM)
minimal inhibitory concentration (MIC) MRSA [1]: 1.88 µg/mL (≈ 0.792 µM)
minimal inhibitory concentration (MIC) Paa (Pseudomonas (Psa)): 0.57 µg/mL (≈ 0.24 µM)

CC(C)C[C@@H]1NC(=O)[C@@H](NC(=O)[C@H](Cc2ccccc2)NC(=O)CNC(=O)[C@@H](N)CCCNC(=N)N)CSSC[C@@H](C(=O)N[C@H](C(=O)N[C@@H](CCCNC(=N)N)C(=O)O)C(C)C)NC(=O)[C@H](Cc2ccccc2)NC(=O)[C@H](CCCNC(=N)N)NC(=O)[C@H](C(C)C)NC(=O)CN(C)C(=O)[C@H](Cc2ccccc2)NC(=O)[C@H](CCCNC(=N)N)NC(=O)CNC(=O)[C@H](C(C)C)NC(=O)CN(C)C(=O)[C@H](Cc2ccc(O)cc2)NC(=O)[C@H](CCCNC(=N)N)NC1=O [RGFCLRYXVGRFXVRFCVR] (H-RGFCLRY[Sar]VGRF[Sar]VRFCVR-OH; disulfide 4-17 (inferred); N-terminus assumed)
minimal inhibitory concentration (MIC) VREF (VREF): 12 µg/mL (≈ 5.28 µM)
minimal inhibitory concentration (MIC) MRSA [1]: >32 µg/mL

CC(C)C[C@@H]1NC(=O)[C@@H](NC(=O)[C@H](Cc2ccccc2)NC(=O)CNC(=O)[C@@H](N)CCCNC(=N)N)CSSC[C@@H](C(=O)N[C@@H](CCCNC(=N)N)C(N)=O)NC(=O)[C@H](C(C)C)NC(=O)[C@H](Cc2ccccc2)NC(=O)[C@H](CCCNC(=N)N)NC(=O)[C@H](C(C)C)NC(=O)CN(C)C(=O)[C@H](Cc2ccccc2)NC(=O)[C@H](CCCNC(=N)N)NC(=O)CNC(=O)[C@H](C(C)C)NC(=O)CN(C)C(=O)[C@H](Cc2ccc(O)cc2)NC(=O)[C@H](CCCNC(=N)N)NC1=O [RGFCLRYXVGRFXVRFVCR] (H-RGFCLRY[Sar]VGRF[Sar]VRFVCR-NH2; disulfide 4-18 (inferred); N-terminus assumed)
minimal inhibitory concentration (MIC) MRSA [1]: >54 µg/mL

CC(C)C[C@@H]1NC(=O)[C@@H](NC(=O)CNC(=O)CNC(=O)[C@@H](N)CCCNC(=N)N)CSSC[C@@H](C(=O)N[C@@H](CCCNC(=N)N)C(N)=O)NC(=O)[C@H](C(C)C)NC(=O)[C@H](CCCNC(=N)N)NC(=O)[C@H](C(C)C)NC(=O)[C@H](C)NC(=O)[C@H](Cc2ccccc2)NC(=O)[C@H](CCCNC(=N)N)NC(=O)CN(C)C(=O)[C@H](CCCNC(=N)N)NC(=O)[C@H](C)NC(=O)[C@H](Cc2ccc(O)cc2)NC(=O)[C@H](CCCNC(=N)N)NC1=O [RGGCLRYARXRFAVRVCR] (H-RGGCLRYAR[Sar]RFAVRVCR-NH2; disulfide 4-17 (inferred); N-terminus assumed)
minimal inhibitory concentration (MIC) MRSA [1]: >32 µg/mL
minimal inhibitory concentration (MIC) Paa (Pseudomonas (Psa)): 5.7 µg/mL (≈ 2.7 µM)

CC(C)C[C@@H]1NC(=O)[C@@H](NC(=O)CNC(=O)CNC(=O)[C@@H](N)CCCNC(=N)N)CSSC[C@@H](C(=O)N[C@@H](CCCNC(=N)N)C(=O)O)NC(=O)[C@H](C(C)C)NC(=O)[C@H](CCCNC(=N)N)NC(=O)[C@H](C(C)C)NC(=O)[C@H](C)NC(=O)[C@H](Cc2ccccc2)NC(=O)[C@H](CCCNC(=N)N)NC(=O)CNC(=O)[C@H](C(C)C)NC(=O)[C@H](C)NC(=O)[C@H](Cc2ccc(O)cc2)NC(=O)[C@H](CCCNC(=N)N)NC1=O [RGGCLRYAVGRFAVRVCR] (H-RGGCLRYAVGRFAVRVCR-OH; disulfide 4-17; N-terminus assumed)
minimal inhibitory concentration (MIC) VREF (VREF): 5.3 µg/mL (≈ 2.6 µM)
minimal inhibitory concentration (MIC) MRSA [1]: >32 µg/mL

CC(C)C[C@@H]1NC(=O)[C@@H](NC(=O)CNC(=O)CNC(=O)[C@@H](N)CCCNC(=N)N)CSSC[C@@H](C(=O)N[C@@H](CCCNC(=N)N)C(N)=O)NC(=O)[C@H](C(C)C)NC(=O)[C@H](CCCNC(=N)N)NC(=O)[C@H](C(C)C)NC(=O)[C@H](C)NC(=O)[C@H](Cc2ccccc2)NC(=O)[C@H](CCCNC(=N)N)NC(=O)[C@@H]2CCCN2C(=O)[C@H](C(C)C)NC(=O)[C@H](C)NC(=O)[C@H](Cc2ccc(O)cc2)NC(=O)[C@H](CCCNC(=N)N)NC1=O [RGGCLRYAVPRFAVRVCR] (H-RGGCLRYAVPRFAVRVCR-NH2; disulfide 4-17; N-terminus assumed)
minimal inhibitory concentration (MIC) MRSA [1]: >128 µg/mL
minimal inhibitory concentration (MIC) Paa (Pseudomonas (Psa)): 0.05 µg/mL (≈ 0.0241 µM)

PG-1: protegrin PG-1 (RGGRLCYCRRRFCVCVGR; ends and bridges not checked; also: two disulfide bonds, pairing not given here; UniProt P32194 131-148, looked up)
motility of T. vaginallis ([2]; 50 ug/ml, RPMI+1% heat-activated fetal calf serum, within a few minutes after exposure): becomes stationary
lysis of T. vaginallis ([2]; 50 ug/ml, over the ensuing 15-30 minutes): lyse
growth of exposed organisms in Diamond's medium ([2]; after exposure to 50 ug/ml): fail to grow

PG-3: protegrin PG-3 (RGGGLCYCRRRFCVCVGR; ends and bridges not checked; cysteine pairing not given here; UniProt P32196 131-148, looked up)
motility of T. vaginallis ([2]; 25 ug/ml): retain their motility

cis-parevin: parevin with disulfide bridges C5-C8 and C13-C16 (RGGRCLYCRRRFCIVCG; disulfide 13-16, 5-8)
antibacterial activity, radial diffusion (effectiveness) (E. coli ML-35p; [3]): comparably effective in the absence of salt and both were more effective than sPG-1
antibacterial activity, radial diffusion (effectiveness) (E. coli ML-35p; [4]): maintained their effectiveness and were comparable

tachytegrin: tachytegrin with disulfide bridges C4-C17 and C8-C13 (RGGCRLYCRRRFCVVGCR; disulfide 8-13, 4-17)
antibacterial activity, radial diffusion (effectiveness) (E. coli ML-35p; [5]): slightly more effective than sPG-1 although slightly less effective than linear PG-1
antibacterial activity, radial diffusion (effectiveness) (E. coli ML-35p; [6]): comparably effective

trans-parevin: parevin with disulfide bridges C5-C16 and C8-C13 (RGGRCLYCRRRFCVVCGR; disulfide 8-13, 5-16)
antibacterial activity, radial diffusion (effectiveness) (E. coli ML-35p; [5]): slightly more effective than sPG-1 although slightly less effective than linear PG-1
antibacterial activity, radial diffusion (effectiveness) (E. coli ML-35p; [6]): comparably effective
antibacterial activity, radial diffusion (effectiveness) (E. coli ML-35p; [3]): comparably effective in the absence of salt and both were more effective than sPG-1
antibacterial activity, radial diffusion (effectiveness) (E. coli ML-35p; [4]): maintained their effectiveness and were comparable
